“Also recorded” adds a separate entry of the source. *1 amine or outer side, *2 acyl side, *3 side chain or, on linkers, in order; H or OH if unused. Where a SMILES comes first, the peptide text is derived from it. Bridges are numbered along the chain shown (N, C = ends). [ ]: non-standard residue; d: D form. The star is where a group is joined. Orn(4R-OH,5R-OH) = O=C([C@H](C[C@@H](O)[C@@H](O)N[*:3])N[*:1])[*:2]; Tetradecanoyl(10R,12S-Me2) = CC[C@H](C)C[C@H](C)CCCCCCCCC(=O)*; hTyr(3S-OH,4S-OH) = N[C@H](C(=O)O)[C@H](O)[C@@H](O)c1ccc(O)cc1; Gln(3R-OH) = NC(=O)C[C@@H](O)[C@H](N)C(=O)O; Pro(3S-OH) = O=C(O)[C@H]1NCC[C@@H]1O; Hyp = O=C(O)[C@@H]1C[C@@H](O)CN1
Experiments:
[1] = system: rabbit fast skeletal (psoas) myofibrils; test: Skeletal myofibril ATPase assay; type: biochemical; conditions: 50 μM compound, pCa 8 to pCa 4
Method: Rabbit psoas and bovine cardiac myofibrils were prepared as described in our previous study ([17]). An enzyme-coupled, NADH-linked ATPase assay was used to measure skeletal and cardiac myofibril ATPase activity in 96-well microplates at 23 °C. Ionic strength was maintained below 0.2 M, so myofilaments remained insoluble and stable ([32]). To achieve optimal enzymatic activities, buffers for skeletal and cardiac myofibrils differed slightly ([33], [34]): skeletal in 50 mM MOPS, 100 mM KCl, 5 mM MgCl2, 1 mM EGTA, pH 7.0; cardiac in 20 mM MOPS, 35 mM NaCl, 5 mM MgCl2, 1 mM EGTA, pH 7.0. Each well in the microplate contained an assay mix of 0.84 mM phosphoenolpyruvate, 0.17 mM NADH, 10 U/vol pyruvate kinase, 20 U/vol lactate dehydrogenase. The concentration of free Ca^2+ was controlled by EGTA buffering ([35]). Myofibrils were dispensed in microplates with a multichannel pipette and were incubated with assay mix plus compound of interest for 20 min at 23 °C. The concentration of myofibrils used was 0.01 mg/ml for skeletal and 0.05 mg/ml for cardiac myofibrils. The assay was started upon the addition of ATP, at a final concentration of 2.1 mM (total volume to 200 μl), and absorbance was recorded at 340 nm in a SpectraMax Plus microplate spectrophotometer from Molecular Devices. The steady-state myofibrillar ATPase rate was measured from NADH oxidation, measured as the rate of decrease in absorption at 340 nm for 30 min, with absorption data collected every 15 s. All data and statistical analysis of steady-state kinetics were conducted with the OriginPro program. The results were fitted with the Hill equation:(6) V=V0+(Vmax/1+10^−n∗^(pCa50−pCa)) where V is the ATPase rate and n is the Hill coefficient.
ATPase activity is reported on the μmol ATP/mg protein/min scale. Average data are presented as mean ± SD. Sample means are derived from three different myofibril preps (N = 3), each done in duplicate (n = 6).
The effects of compounds on ATPase activity of myofibrils were determined in the presence of 50 μM compound, across a 12-point pCa range from 4.0 (activation) to 8.0 (relaxation). The calcium sensitivity (pCa50) was determined by fitting the curves to the Hill equation. In all experiments, a 1% DMSO-only control was included. The normalized ATPase activity of the selected compounds can be found in Figure 6.

TMR-cC0-C2 = test: Selleck library HTS, 532 nm excitation (FLT of TMR-cC0-C2 in presence of FMAL-actin); type: binding, human
[2] = system: PKA-phosphorylated TMR-cC0-C2 (cC0-C2#P); test: FLT-TMR concentration-response assay, PKA-phosphorylated cC0-C2; type: binding, human; conditions: 60 μM compound
Summary of the method: (§1)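 Hits tested at eight concentrations (0.5–100 μM) and read on a high-throughput fluorescence lifetime plate reader. Hill fits applied only under certain conditions.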

[3] = system: FMAL-actin/TMR-cC0-C2 interaction; test: FLT-FRET concentration-response assay, FMAL-actin plus TMR-cC0-C2; type: binding, human; conditions: unphosphorylated cC0-C2
Summary of the method: as §1

In the case of `CC[C@H](C)C[C@H](C)CCCCCCCCC(=O)N[C@H]1C[C@@H](O)[C@@H](O)NC(=O)[C@@H]2[C@@H](O)CCN2C(=O)[C@H]([C@H](O)CC(N)=O)NC(=O)[C@H]([C@H](O)[C@@H](O)c2ccc(O)cc2)NC(=O)[C@@H]2C[C@@H](O)CN2C(=O)[C@H]([C@@H](C)O)NC1=O` [Pneumocandin B0] ({Tetradecanoyl(10R,12S-Me2)}-[Orn(4R-OH,5R-OH)]T[Hyp][hTyr(3S-OH,4S-OH)][Gln(3R-OH)][Pro(3S-OH)]; lactam 1-C), the “effect on skeletal MF ATPase activity (in words)” value [1] was “inhibitory effect; also recorded: affected ATPase”, the “532-nm Δτ, Repeat 1” value (TMR-cC0-C2; initial screen, 30 μM compound) was 0.179 ns and the “532-nm Δτ, Repeat 2” value (TMR-cC0-C2; initial screen, 30 μM compound) was 0.149 ns. The “532-nm z-score (based on avg Δτ)” value (TMR-cC0-C2; robust z-score, hit threshold ±4, 30 μM compound) was 10.04, the “cC0-C2#P FLT change (% change from DMSO, FLT of TMR-MyBP-C)” value [2] was 13.2% and the “effect on FLT-FRET / binding between FMAL-actin and TMR-cC0-C2 (in words)” value [3] was “increased the binding”.

Reference: publication PMC10692721, “Drug discovery for heart failure targeting myosin-binding protein C” (The Journal of Biological Chemistry, 2023)
